Reference: article PMC10786919, “Design-rules for stapled peptides with in vivo activity and their application to Mdm2/X antagonists” (Nature Communications, 2024)
“And” between values parts separate entries of the source, which are not always exact repeats. Equal entries are not always repeated. Where two headings read alike, the source gives them in different places. Positions of bridges follow the written chain, without caps; N, C: chain ends. Non-standard residues stand in square brackets, D forms with d. Residues, ends and D or L forms follow the SMILES beside them. dPhe(4-CF3) = N[C@H](Cc1ccc(C(F)(F)F)cc1)C(=O)O; dTrp(6-F) = N[C@H](Cc1c[nH]c2cc(F)ccc12)C(=O)O; Lys(N3) = [N-]=[N+]=NCCCC[C@H](N)C(=O)O; R8 = C=CCCCCCC[C@@](C)(N)C(=O)O; Cba = N[C@@H](CC1CCC1)C(=O)O; R5 = C=CCCC[C@@](C)(N)C(=O)O; S5 = C=CCCC[C@](C)(N)C(=O)O; βAla = NCCC(=O)O

How the values were obtained:
human Mdm2 1–125 = target: T1, human Mdm2 1–125 (Homo sapiens, UniProt Q00987); assay: Mdm2 binding by competitive fluorescence anisotropy assay (FP binding)
T1 construct: GST (N); His6 (internal); TEV cleavage site (ENLYFQG) (internal); made in house; host or cells: BL21 (DE3) Rosetta T1R Escherichia coli

[1] = system: p53 responsive β-lactamase reporter in HCT116 cells; assay: cells; format: cell-based
In short: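 HCT116 cells stably carrying a p53-responsive β-lactamase reporter, seeded at 8000 cells/well, with 0.5% DMSO final. Reporter activity read by ToxBLAzer Dual Screen. Values are geometric means of at least three biological replicates.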

[2] = Lactate dehydrogenase (LDH) release assay; format: cell-based
In short: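 HCT116 cells stably carrying a p53-responsive β-lactamase reporter were seeded at 8000 cells per well with a final DMSO level of 0.5%. Membrane integrity was assessed by lactate dehydrogenase release using a homogeneous fluorometric kit. Values are geometric means of at least three biological replicates.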

[3] = Circular dichroism (CD) helicity; format: physicochemical
Experimental: A total of 5 µL of the 10 mM stock peptide was mixed with 45 µL of 100% methanol, and dried for 2 h in the SpeedVac concentrator (Thermo Scientific). The dried peptide was reconstituted in a buffer (1 mM Hepes pH 7.4 and 5% methanol) to a concentration of 1 mM. The peptide sample was placed in a quartz cuvette with a path length of 0.2 cm. The peptide concentration was determined by the absorbance of the peptide at […]. The CD spectrum was recorded from 300 to 190 nm using the Chirascan-plus qCD machine (Applied Photophysics, Surrey, UK), at 25 °C. All experiments were done in duplicates. The CD spectrum was converted to mean residue ellipticity before deconvolution and estimation of the secondary structure components of the peptide using the CDNN software (distributed by Applied Photophysics). Measurements were taken at least twice and were reported as arithmetic means.

[4] = system: cells transiently transfected with the NanoLuc-HaloTag vector; assay: Nanoclick permeability assay; details: 4Hr
In short: (§1)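 Azido-peptide permeability was read as loss of NanoBRET signal (donor 450 nm, acceptor 610 nm) after adding NanoBret618-azide at 10 μM final.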

[5] = Nanoclick permeability assay
In short: as §1

[6] = 0% FBS 4Hr, read-out: p53 reporter assay EC50
[7] = 0% FBS 16Hr, read-out: p53 reporter assay EC50
[8] = 10% FBS 4Hr, read-out: p53 reporter assay EC50
[9] = 0% FBS 4Hr, read-out: p53 reporter assay: EC50
[10] = 0% FBS 4Hr, read-out: LDH: Cytotoxicity assay: EC50
[11] = FP binding assay KD, Tween-20 <CMC
[12] = 10% FBS 16Hr, read-out: p53 reporter assay EC50
[13] = 0% FBS 4Hr, read-out: LDH: Cytotoxicity assay EC50
[14] = 10% FBS 16Hr, read-out: LDH: Cytotoxicity assay EC50
[15] = read-out: Cell EC50 (4 hr, 0% FBS), p53 reporter assay, 4 hr, 0% FBS
[16] = read-out: Cell EC50 (16 hr, 10% FBS), p53 reporter assay, 16 hr, 10% FBS

T1 sequence (Q00987 with tags, fused parts or gaps): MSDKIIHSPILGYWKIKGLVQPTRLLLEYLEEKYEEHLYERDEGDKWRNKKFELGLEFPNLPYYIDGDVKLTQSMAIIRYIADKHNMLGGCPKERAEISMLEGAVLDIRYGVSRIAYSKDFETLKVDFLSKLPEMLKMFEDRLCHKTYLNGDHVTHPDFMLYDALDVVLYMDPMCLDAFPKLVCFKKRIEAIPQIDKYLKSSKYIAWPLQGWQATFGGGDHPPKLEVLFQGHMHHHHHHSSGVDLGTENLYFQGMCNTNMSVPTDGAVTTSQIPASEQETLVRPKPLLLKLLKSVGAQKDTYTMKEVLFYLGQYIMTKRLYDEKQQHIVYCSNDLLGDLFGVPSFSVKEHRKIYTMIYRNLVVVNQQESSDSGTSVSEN

Row | SMILES | EC50 [1, 6] [nM] | CD % Helicity [3] [%] | Nanoclick permeability assay % Effect [4] [%] | Kd (human Mdm2 1–125; Binding KD) [nM] | cell entry EC50 [5] [nM] | Kd (human Mdm2 1–125; [11]) [nM] | p53 reporter assay % Effect ([1]; 0% FBS 4Hr) [%] | p53 reporter assay % Effect ([1]; 10% FBS 16Hr) [%] | EC50 [1, 12] [nM] | EC50 [2, 13] [nM] | EC50 [2, 14] [nM] | also measured
1 | CC(=O)N[C@@H](CC(C)C)C(=O)N[C@H](C(=O)N[C@@H](Cc1ccccc1)C(=O)N[C@]1(C)CCCCCCC=CCCC[C@@](C)(C(=O)N[C@@H](CO)C(=O)N[C@@H](C)C(=O)N[C@@H](C)C(N)=O)NC(=O)[C@@H](CC2CCC2)NC(=O)[C@H](CC(C)C)NC(=O)[C@H](CCC(N)=O)NC(=O)[C@H](Cc2c[nH]c3ccccc23)NC(=O)[C@H](Cc2ccc(O)cc2)NC(=O)[C@H](CCC(=O)O)NC1=O)[C@@H](C)O [MP-009] | 8260 | 23.85 | 22.02 |  |  |  |  |  |  |  |  | Kd (human Mdm2 1–125; read-out: FP binding assay KD): 2220 nM; EC50 [1, 7]: 29500 nM; EC50 [1, 8]: > 50600 nM; EC50 ([2]; LDH: Cytotoxicity assay EC50): > 50700 nM
2 | CC(=O)N[C@@H](CCCCN=[N+]=[N-])C(=O)NCCC(=O)N[C@@H](CC(N)=O)C(=O)N[C@H](C(=O)N[C@@H](Cc1ccccc1)C(=O)N[C@]1(C)CCCCCCC=CCCC[C@@](C)(C(=O)N[C@@H](CC(N)=O)C(=O)N[C@@H](CC(N)=O)C(=O)N[C@@H](CC(N)=O)C(N)=O)NC(=O)[C@H](CC2CCC2)NC(=O)[C@H](CCC(N)=O)NC(=O)[C@H](CC(N)=O)NC(=O)[C@H](Cc2c[nH]c3ccccc23)NC(=O)[C@H](Cc2ccc(O)cc2)NC(=O)[C@H](CC(N)=O)NC1=O)[C@@H](C)O [MP-359, azide-ATSP-7041 (L1N, E5N, A8N, S12N, A13N, A14N)] (Ac-[Lys(N3)][βAla]NTF[R8]NYWNQ[Cba][S5]NNN-NH2; staple 6-13) |  | 39.55 | 112.9 | 15 | 380 |  |  |  |  |  |  | EC50 [1, 9]: 32200 nM; EC50 [2, 10]: > 50600 nM
3 | CC(=O)N[C@@H](C(=O)N[C@H](C)C(=O)N[C@H](Cc1c[nH]c2cc(F)ccc12)C(=O)N[C@H](Cc1ccc(O)cc1)C(=O)N[C@H](C)C(=O)N[C@]1(C)CCCC=CCCC[C@](C)(C(=O)N[C@H](CC(C)C)C(=O)N[C@H](CO)C(=O)N[C@H](C)C(=O)N[C@H](C)C(=O)N[C@H](C)C(=O)N[C@H](C)C(=O)N[C@H](C)C(=O)N[C@H](C)C(=O)N[C@H](C)C(=O)N[C@H](C)C(=O)N[C@H](C)C(N)=O)NC(=O)[C@@H](CCC(N)=O)NC(=O)[C@@H](CCC(=O)O)NC(=O)[C@@H](Cc2ccc(C(F)(F)F)cc2)NC1=O)[C@H](C)O [MP-1230] (Ac-[dT][dA][dTrp(6-F)][dY][dA][R5][dPhe(4-CF3)][dE][dQ][R5][dL][dS][dA][dA][dA][dA][dA][dA][dA][dA][dA]-NH2; staple 6-10) | > 50400 | 8.3 |  |  |  | 21.7 | 14.85 | 35.9 | > 50400 | > 50700 | > 50700 | 
4 | CC(=O)N[C@@H](CCCCN=[N+]=[N-])C(=O)NCCC(=O)N[C@@H](CC(C)C)C(=O)N[C@H](C(=O)N[C@@H](Cc1ccccc1)C(=O)N[C@]1(C)CCCCCCC=CCCC[C@@](C)(C(=O)N[C@@H](CO)C(=O)N[C@@H](C)C(=O)N[C@@H](C)C(N)=O)NC(=O)[C@H](CC2CCC2)NC(=O)[C@H](CCC(N)=O)NC(=O)[C@H](C)NC(=O)[C@H](Cc2c[nH]c3ccccc23)NC(=O)[C@H](Cc2ccc(O)cc2)NC(=O)[C@H](Cc2c[nH]c3ccccc23)NC1=O)[C@@H](C)O [MP-185] (Ac-[Lys(N3)][βAla]LTF[R8]WYWAQ[Cba][S5]SAA-NH2; staple 6-13) | 137 |  | 140.4 |  |  |  |  |  |  |  |  | Kd (human Mdm2 1–125; read-out: FP binding assay KD): 98.5 nM; EC50 [1, 7]: 214 nM; p53 reporter assay % Effect ([1]; 10% FBS 4Hr): 14.92%; EC50 [1, 8]: 1860 nM; EC50 ([2]; LDH: Cytotoxicity assay EC50): > 50000 nM; cell entry EC50 ([5]; Nanoclick permeability assay EC50): 77.4 nM
5 | CC(C)C[C@@H](NC(=O)[C@@]1(C)CCCC=CCCC[C@@](C)(NC(=O)[C@@H](C)NC(=O)[C@@H](Cc2ccc(O)cc2)NC(=O)[C@@H](Cc2c[nH]c3cc(F)ccc23)NC(=O)[C@@H](C)NC(=O)[C@H](N)[C@H](C)O)C(=O)N[C@H](Cc2ccc(C(F)(F)F)cc2)C(=O)N[C@H](CCC(=O)O)C(=O)N[C@H](CCC(N)=O)C(=O)N1)C(=O)N[C@H](CO)C(N)=O [MP-795] (H-[dT][dA][dTrp(6-F)][dY][dA][R5][dPhe(4-CF3)][dE][dQ][R5][dL][dS]-NH2; staple 6-10) | 5180 |  | 23.68 |  | > 10000 | 152 | 142.6 | 21.51 | > 50400 | > 50700 | > 50700 | 
6 | CC(=O)N[C@@H](C(=O)N[C@H](C)C(=O)N[C@H](Cc1c[nH]c2cc(F)ccc12)C(=O)N[C@H](Cc1ccc(O)cc1)C(=O)N[C@H](C)C(=O)N[C@]1(C)CCCC=CCCC[C@](C)(C(=O)N[C@H](CC(C)C)C(=O)N[C@H](CO)C(=O)N[C@H](C)C(=O)N[C@H](C)C(=O)N[C@H](C)C(=O)N[C@H](C)C(=O)N[C@H](C)C(=O)N[C@H](C)C(N)=O)NC(=O)[C@@H](CCC(N)=O)NC(=O)[C@@H](CCC(=O)O)NC(=O)[C@@H](Cc2ccc(C(F)(F)F)cc2)NC1=O)[C@H](C)O [MP-042] (Ac-[dT][dA][dTrp(6-F)][dY][dA][R5][dPhe(4-CF3)][dE][dQ][R5][dL][dS][dA][dA][dA][dA][dA][dA]-NH2; staple 6-10) | 612 | 57.4 | 1.941 | 30 | > 10000 | 3.23 | 91.28 | 98.03 | 284 | > 50700 | > 50700 | overall improvement of cellular activity compared to initial parent peptide (MP-769) ([1]; 10% serum, 16-hour): > 178 fold; EC50 [1, 15]: 600 nM; EC50 [1, 16]: 280 nM and 300 nM; EC50 ([2]; 4 hours, 0% serum, read-out: LDH Cytotoxicity assay EC50): > 50000 nM
7 | CC(=O)N[C@@H](CCCCN=[N+]=[N-])C(=O)NCCC(=O)N[C@@H](CC(C)C)C(=O)N[C@H](C(=O)N[C@@H](Cc1ccccc1)C(=O)N[C@]1(C)CCCCCCC=CCCC[C@@](C)(C(=O)N2CCC[C@@H]2C(=O)N2CCC[C@@H]2C(=O)N2CCC[C@@H]2C(=O)N2CCC[C@@H]2C(=O)N2CCC[C@@H]2C(=O)N2CCC[C@@H]2C(N)=O)NC(=O)[C@H](CC2CCC2)NC(=O)[C@H](CCC(N)=O)NC(=O)[C@H](C)NC(=O)[C@H](Cc2c[nH]c3ccccc23)NC(=O)[C@H](Cc2ccc(O)cc2)NC(=O)[C@H](CCC(=O)O)NC1=O)[C@@H](C)O [MP-896] |  | 19.15 | 114.3 | 11 | 1420 | 10.9 |  |  |  |  |  | p53 reporter assay: % Effect ([1]; 0% FBS 4Hr): 28.91%; EC50 [1, 9]: > 50400 nM; p53 reporter assay: % Effect ([1]; 10% FBS 16Hr): 32.76%; EC50 ([1]; 10% FBS 16Hr, read-out: p53 reporter assay: EC50): > 50400 nM; EC50 [1, 15]: > 50000 nM; EC50 [1, 16]: > 50000 nM; EC50 [2, 10]: > 50700 nM; EC50 ([2]; 10% FBS 16Hr, read-out: LDH: Cytotoxicity assay: EC50): > 50700 nM; Aqueous solution helicity ([3]; circular dichroism): 19.15%
